Measured values taken from US20250179481A1, “COMPOSITIONS AND METHODS FOR TARGETING, EDITING, OR MODIFYING GENES” (Celyntra Therapeutics SA, priority 2021, published 2025).

System: human genes
Assay: Editing efficiency of tested crRNAs / guide nucleic acids (Tables 7-10) detected in human cells
Format: cell-based
Details: Target Gene LAG3; tested crRNAs targeting human genes

Row | Substance | % Indel [%]
1 | gLAG3_6: spacer targeting LAG3, SEQ ID NO 153, GGGTGCATACCTGTCTGGCTG (chemistry not given here) | 52.4

Same assay, conditions: Target Gene PD; tested crRNAs targeting human genes

Row | Substance | % Indel [%]
2 | gPD_23: spacer targeting PDCD1, SEQ ID NO 210, TCTGCAGGGACAATAGGAGCC (chemistry not given here) | 57.6

Same assay, conditions: Target Gene PTPN6; tested crRNAs targeting human genes

Row | Substance | % Indel [%]
3 | gPTPN6_9 (guide CCTGACGCTGCCTTCTCTAGG; chemistry not given here) | 0.8
4 | gPTPN6_8 (guide AGGTGGATGATGGTGCCGTCG; chemistry not given here) | 3.5
5 | gPTPN6_6: spacer targeting PTPN6, SEQ ID NO 249, TATGACCTGTATGGAGGGGAG (chemistry not given here) | 83.4

Same assay, conditions: Target Gene TIGIT; tested crRNAs targeting human genes

Row | Substance | % Indel [%]
6 | gTIGIT_31 (guide AATGTCCTGAGTTACAGAAGC; chemistry not given here) | 0.5
7 | gTIGIT_27 (guide CTCCTGAGGTCACCTTCCACA; chemistry not given here) | 1.6
8 | gTIGIT_24 (guide TTTTTAGAAGAAAGCCCTCAG; chemistry not given here) | 0.4
9 | gTIGIT_15 (guide TAGGACCTCCAGGAAGATTCT; chemistry not given here) | 0.4
10 | gTIGIT_6 (guide CTCTGCAGAAATGTTCCCCGT; chemistry not given here) | 0.1
11 | gTIGIT_19 (guide GAGCCATGGCCGCGACGCTGG; chemistry not given here) | 0.9
12 | gTIGIT_4 (guide TATTGTGCCTGTCATCATTCC; chemistry not given here) | 1
13 | gTIGIT_26 (guide CACAGAATGGATTCTGAGGGC; chemistry not given here) | 0.3
14 | gTIGIT_9 (guide TGGCCATTTGTAATGCTGACT; chemistry not given here) | 0.8
15 | gTIGIT_20 (guide TAGTCAACGCGACCACCACGA; chemistry not given here) | 0.1
16 | gTIGIT_10 (guide TAATGCTGACTTGGGGTGGCA; chemistry not given here) | 1.6
17 | gTIGIT_7 (guide TGCAGAGAAAGGTGGCTCTAT; chemistry not given here) | 6
18 | gTIGIT_13 (guide AAGGATCGAGTGGCCCCAGGT; chemistry not given here) | 0.2
19 | gTIGIT_2: spacer targeting TIGIT, SEQ ID NO 302, AGGCCTTACCTGAGGCGAGGG (chemistry not given here) | 81.7
20 | gTIGIT_18 (guide GTCCTCCCTCTAGTGGCTGAG; chemistry not given here) | 72.4
21 | gTIGIT_16 (guide CTAGGACCTCCAGGAAGATTC; chemistry not given here) | 0.5

Row | Substance | % Indel [%]
22 | gTIGIT_28 (guide CTGGGGGTGAGGGAGCACTGG; chemistry not given here) | 0.5
23 | gTIGIT_17 (guide CTCCAGCAGGAATACCTGAGC; chemistry not given here) | 0.8
24 | gTIGIT_30 (guide TGTAACTCAGGACATTGAAGT; chemistry not given here) | 0.5
25 | gTIGIT_22 (guide TAGTTTGTTTGTTTTTAGAAG; chemistry not given here) | 0.6
26 | gTIGIT_3 (guide GTCCTCTTCCCTAGGAATGAT; chemistry not given here) | 1.3
27 | gTIGIT_25 (guide TAGAAGAAAGCCCTCAGAATC; chemistry not given here) | 1.2
28 | gTIGIT_11 (guide GGGTGGCACATCTCCCCATCC; chemistry not given here) | 9.7
29 | gTIGIT_1 (guide CCTGAGGCGAGGGGAGCCTGC; chemistry not given here) | 0.2
30 | gTIGIT_14 (guide TGCATCTATCACACCTACCCT; chemistry not given here) | 1.4
31 | gTIGIT_12 (guide AAGGATGGGGAGATGTGCCAC; chemistry not given here) | 0.4
32 | gTIGIT_23 (guide TTTGTTTTTAGAAGAAAGCCC; chemistry not given here) | 1
33 | gTIGIT_21 (guide CTAGTCAACGCGACCACCACG; chemistry not given here) | 0.1
34 | gTIGIT_5 (guide TCTGCAGAAATGTTCCCCGTT; chemistry not given here) | 1.1
35 | gTIGIT_29 (guide TGCCTGGACACAGCTTCCTGG; chemistry not given here) | 0.3
36 | gTIGIT_8 (guide TGCCGTGGTGGAGGAGAGGTG; chemistry not given here) | 0.3

Same assay, conditions: Target Gene TRAC; tested crRNAs targeting human genes

Row | Substance | % Indel [%]
37 | gTRAC089 (guide AACTCAGGGTTGAGAAAACAG; chemistry not given here) | 0.7
38 | gTRAC090 (guide ACTCAGGGTTGAGAAAACAGC; chemistry not given here) | 0.1

Same assay, conditions: crRNA targeting TRBC1 + 2; value at TRBC1

Row | Substance | % Indel (TRBC1) [%]
39 | gTRBC1 + 2_1 (guide AGCCATCAGAAGCAGAGATCT; chemistry not given here) | 66.40

Same assay, conditions: crRNA targeting TRBC1 + 2; value at TRBC2

Row | Substance | % Indel (TRBC2) [%]
40 | gTRBC1 + 2_1 (guide AGCCATCAGAAGCAGAGATCT; chemistry not given here) | 74.7

Same assay, conditions: tested crRNAs targeting human genes; target gene as given (Table 10)

Row | Substance | % Indel [%]
41 | gCD247_12: spacer targeting CD247, SEQ ID NO 89, CTAGCAGAGAAGGAAGAACCC (chemistry not given here) | 70.64
42 | gCARD11_1: spacer targeting CARD11, SEQ ID NO 1388, TAGTACCGCTCCTGGAAGGTT (chemistry not given here) | 1.37
43 | gTRBC2_10 (guide CAGACTGTGGCTTCACCTCCG; chemistry not given here) | 0.16
44 | gTUBB_2 (guide ACCATGAGGGAAATCGTGCAC; chemistry not given here) | 68.4
45 | gDHODH_3 (guide TATGCTGAACACCTGATGCCG; chemistry not given here) | 74.94
46 | gTRAC085 (guide TCAACCCTGAGTTAAAACACA; chemistry not given here) | 0.5
47 | gU6_6 (guide TATATCTTGTGGAAAGGACGA; chemistry not given here) | 0.39
48 | gTRBC2_9 (guide TTTCAGACTGTGGCTTCACCT; chemistry not given here) | 0.24
49 | gTUBB_3 (guide TTCTCTGTAGGTGGCAAATAT; chemistry not given here) | 18.67
50 | gTRBC2_19 (guide CACAGGTCAAGAGAAAGGATT; chemistry not given here) | 1.58
51 | gTRAC087 (guide TCCTGAAGGTAGCTGTTTTCT; chemistry not given here) | 0.2
52 | gU6_1 (guide GTCCTTTCCACAAGATATATA; chemistry not given here) | 68.1
53 | gU6_5 (guide ATATATCTTGTGGAAAGGACG; chemistry not given here) | 0.39
54 | gU6_3 (guide TTGGCTTTATATATCTTGTGG; chemistry not given here) | 2.83
55 | gTRAC086 (guide CTCAACCCTGAGTTAAAACAC; chemistry not given here) | 0.2
56 | gTRBC2_12: spacer targeting TRBC2, SEQ ID NO 1379, CCGGAGGTGAAGCCACAGTCT (chemistry not given here) | 33.14
57 | gTRBC2_14 (guide CCAGCAAGGGGTCCTGTCTGC; chemistry not given here) | 6.69
58 | gTRBC2_21 (guide GAGCTAGCCTCTGGAATCCTT; chemistry not given here) | 11.89

Row | Substance | % Indel [%]
59 | gTRBC2_7 (guide CCCTGTTTTCTTTCAGACTGT; chemistry not given here) | 0.09
60 | gIL7R_3: spacer targeting IL7R, SEQ ID NO 1393, CAGGGGAGATGGATCCTATCT (chemistry not given here) | 87.87
61 | gDHODH_2 (guide TTGCAGAAGCGGGCCCAGGAT; chemistry not given here) | 0.59
62 | gTUBB_1 (guide AACCATGAGGGAAATCGTGCA; chemistry not given here) | 2.61
63 | gPLCG1_2: spacer targeting PLCG1, SEQ ID NO 1403, CCTTTCTGCGCTTCGTGGTGT (chemistry not given here) | 5.14
64 | gTRBC2_16 (guide TATGCCGTGCTGGTCAGTGCC; chemistry not given here) | 0.2
65 | gTRBC2_17 (guide CCATGGCCATCAGCACGAGGG; chemistry not given here) | 1.75
66 | gTRAC088 (guide GTCCTGAAGGTAGCTGTTTTC; chemistry not given here) | 0.1
67 | gLCK1_3: spacer targeting LCK, SEQ ID NO 1401, ACCCATCAACCCGTAGGGATG (chemistry not given here) | 16.21
68 | gTRBC2_11 (guide AGACTGTGGCTTCACCTCCGG; chemistry not given here) | 19.97
69 | gTRBC2_8 (guide CTTTCAGACTGTGGCTTCACC; chemistry not given here) | 0.24
70 | gU6_2 (guide GATTTCTTGGCTTTATATATC; chemistry not given here) | 0.71
71 | gDHODH_1 (guide TTGCAGAAGCGGGCCCAGGAT; chemistry not given here) | 0.6
72 | gTRAC084 (guide GACTTTTCCCAGCTGACAGAT; chemistry not given here) | 1.6
73 | gU6_4 (guide GCTTTATATATCTTGTGGAAA; chemistry not given here) | 0.37
74 | gTRBC2_13 (guide TCAACAGAGTCTTACCAGCAA; chemistry not given here) | 1.2
75 | gTRBC2_15 (guide CTAGGGAAGGCCACCTTGTAT; chemistry not given here) | 21.74
76 | gU6_7 (guide TGGAAAGGACGAAACACCGTG; chemistry not given here) | 0.24
